Reference: publication PMC9578396, “Intrinsic Antibacterial Activity of Xeruborbactam In Vitro: Assessing Spectrum and Mode of Action” (Antimicrobial Agents and Chemotherapy, 2022)
Where two headings read alike, the source gives them in different places.

Experiments:
Assay type in all cases: cell-based
Acinetobacter baumannii = test: Broth microdilution MIC (CLSI), Acinetobacter baumannii; conditions: Acinetobacter baumannii
Excerpt: (§1) (i) Panels of engineered bacterial strains containing various combinations of porin and efflux mutations were used. The construction of all the strains used in the study is described in detail in references, [44], and [45]. (ii) KPC-producing clinical isolates and their derivatives that lost KPC plasmids were used also. These strains and their origins are described in the Table S2. (iii) Finally, KPC-producing clinical isolates enriched in strains with porin mutations were used. The mutations identified include various deletions, insertions, nonsense mutations, and decreased expression. Most of the isolates were obtained from JMI Laboratories or International Health Management Associates (IHMA); they were collected in the course of global surveillance studies.
(§2) Bacterial isolates were subjected to broth microdilution susceptibility testing, performed according to Clinical and Laboratory Standards Institute (CLSI) methods ([46]), using panels prepared in-house. […] Xeruborbactam was synthesized at Qpex Biopharma, San Diego, CA. Avibactam was purchased from eNovation Chemicals LLC, Bridgewater, NJ, USA; zidebactam was from MedKoo Biosciences, Inc., Morrisville, NC, and nacubactam was from Advanced ChemBlocks, Hayward, CA. Durlobactam was synthesized at Acme Bioscience, Palo Alto, CA, USA.

Escherichia coli = test: Broth microdilution MIC (CLSI), Escherichia coli; conditions: Escherichia coli
Excerpt: as §1, §2

Pseudomonas aeruginosa = test: Broth microdilution MIC (CLSI), Pseudomonas aeruginosa
Excerpt: as §1, §2

Klebsiella pneumoniae = test: microbe, parasite or virus in culture
Excerpt: as §1, §2

[1] = strain AB1007, wild type, read-out: MIC
[2] = strain ACM1015, ΔadeIJK ΔadeABC
[3] = strain ACM1027, adeN (AdeIJK overexpression)
[4] = strain ACM1030, adeS (AdeABC overexpression)
[5] = strain ECM5497, wild type, read-out: MIC
[6] = strain ECM6502, marR (AcrAB overexpression)
[7] = Pseudomonas aeruginosa, strain PAM1020, wild type, read-out: MIC
[8] = Pseudomonas aeruginosa, strain PAM1032, nalB (MexAB-OprM overexpression)
[9] = Pseudomonas aeruginosa, strain PAM1033, nfxB (MexCD-OprJ overexpression)
[10] = Pseudomonas aeruginosa, strain PAM1034, nfxC (MexEF-OprN overexpression)
[11] = Pseudomonas aeruginosa, strain PAM1106, mexA::Tet
[12] = Pseudomonas aeruginosa, strain PAM1154, oprM::Hg
[13] = Klebsiella pneumoniae, strain KPM1026a, wild type, read-out: MIC
[14] = Klebsiella pneumoniae, strain KPM1027, ramR, read-out: MIC
[15] = Klebsiella pneumoniae, strain KPM1171, ramR ompK36_1171, read-out: MIC
[16] = Klebsiella pneumoniae, strain KPM2040, ompK36_2040, read-out: MIC
[17] = Klebsiella pneumoniae, strain KPM2600, ΔompK35
[18] = Klebsiella pneumoniae, strain KPM2613, ΔompK35 ompK36_2040
[19] = Klebsiella pneumoniae, strain KPM2696, ΔacrB

CO/N=C(\C(=O)N[C@@H]1C(=O)N2C(C(=O)[O-])=C(C[N+]3(C)CCCC3)CS[C@H]12)c1csc(N)n1 [Cefepime]
0.03 mg/L: MIC (Escherichia coli; [5]) | MIC (Escherichia coli; strain ECM6001, ΔacrB) | MIC (Klebsiella pneumoniae; KPM1026a (no beta-lactamase), xeruborbactam 0 µg/ml) | MIC (Klebsiella pneumoniae; Klebsiella pneumoniae, KPM1026a, alone, read-out: MIC) | MIC (Klebsiella pneumoniae; Klebsiella pneumoniae, KPM1026a, parent, read-out: MIC) | MIC (Klebsiella pneumoniae; [13]) | MIC (Klebsiella pneumoniae; [19])
256 mg/L: MIC (Klebsiella pneumoniae; Klebsiella pneumoniae, BAA2814, KPC-3-producing KP1074 (BAA-2814), xeruborbactam none, read-out: MIC)
1 mg/L: MIC (Acinetobacter baumannii; AB1007, xeruborbactam 4 µg/ml, read-out: MIC) | MIC (Acinetobacter baumannii; strain ACM1014, ΔadeABC)
2- to 8 fold: fold below the MIC that corresponds to complete inhibition of KPC (Klebsiella pneumoniae; KP1074, in the presence of 8 μg/mL xeruborbactam)
0.25 mg/L: MIC (Acinetobacter baumannii; AB1007, xeruborbactam 8 µg/ml, read-out: MIC) | MIC (Acinetobacter baumannii; [2]) | MIC (Pseudomonas aeruginosa; [11]) | MIC (Klebsiella pneumoniae; KP1074, with xeruborbactam 4 µg/ml) | MIC (Klebsiella pneumoniae; [14]) | MIC (Klebsiella pneumoniae; [17]) | MIC (Klebsiella pneumoniae; [18])
16 mg/L: MIC (Klebsiella pneumoniae; Klebsiella pneumoniae, KPM1281 (KPM1026a/NDM-1), alone, read-out: MIC)
8 fold: fold decrease compared to MIC of antibiotic alone (Klebsiella pneumoniae; KPM3534 (TolQ::S31F), with xeruborbactam at 8 μg/mL)
0.002 mg/L: MIC (Klebsiella pneumoniae; KPM1026a, xeruborbactam 8 µg/ml)
2 mg/L: MIC (Acinetobacter baumannii; AB1007 (no beta-lactamase), xeruborbactam 0 µg/ml, read-out: MIC) | MIC (Acinetobacter baumannii; AB1007, xeruborbactam 2 µg/ml, read-out: MIC) | MIC (Klebsiella pneumoniae; [15])
0.015 mg/L: MIC (Klebsiella pneumoniae; KPM1026a, xeruborbactam 2 µg/ml) | MIC (Klebsiella pneumoniae; KPM1026a, xeruborbactam 4 µg/ml)
16 fold: fold decrease compared to MIC of antibiotic alone (Klebsiella pneumoniae; KPM1026a, with xeruborbactam at 8 μg/mL)
0.06 mg/L: MIC (Pseudomonas aeruginosa; PAM1154, xeruborbactam 8 µg/ml) | MIC (Klebsiella pneumoniae; Klebsiella pneumoniae, KPM3532 (TolQ::M189K), alone) | MIC (Klebsiella pneumoniae; Klebsiella pneumoniae, KPM3532, TolQ::M189K)
32 mg/L: MIC (Acinetobacter baumannii; [4]) | MIC (Klebsiella pneumoniae; Klebsiella pneumoniae, KPM4128 (KPM3534 TolQ::S31F/KPC-3), alone) | MIC (Klebsiella pneumoniae; Klebsiella pneumoniae, KPM4130 (KPM3534 TolQ::S31F/NDM-1), alone)
4 mg/L: MIC (Acinetobacter baumannii; [1]) | MIC (Acinetobacter baumannii; strain ACM1013, ΔadeIJK) | MIC (Pseudomonas aeruginosa; [8]) | MIC (Pseudomonas aeruginosa; [9]) | MIC (Klebsiella pneumoniae; Klebsiella pneumoniae, KPM1271 (KPM1026a/KPC-3), alone, read-out: MIC)
0.125 mg/L: MIC (Escherichia coli; [6]) | MIC (Pseudomonas aeruginosa; PAM1154, xeruborbactam 2 µg/ml) | MIC (Pseudomonas aeruginosa; PAM1154, xeruborbactam 4 µg/ml) | MIC (Pseudomonas aeruginosa; [12]) | MIC (Klebsiella pneumoniae; KP1074, with xeruborbactam 8 µg/ml) | MIC (Klebsiella pneumoniae; Klebsiella pneumoniae, KPM3534 (TolQ::S31F), alone) | MIC (Klebsiella pneumoniae; Klebsiella pneumoniae, KPM3534, TolQ::S31F) | MIC (Klebsiella pneumoniae; Klebsiella pneumoniae, KPM4235, TolQ::IP(183–1844)PR) | MIC (Klebsiella pneumoniae; Klebsiella pneumoniae, KPM4236, TolQ::TAA at aa 103) | MIC (Klebsiella pneumoniae; Klebsiella pneumoniae, KPM4238, TolQ::S25F) | MIC (Klebsiella pneumoniae; Klebsiella pneumoniae, KPM4239, TolQ::S28F) | MIC (Klebsiella pneumoniae; Klebsiella pneumoniae, KPM4240, TolQ::S25Y) | MIC (Klebsiella pneumoniae; [16])
2 fold: fold decrease compared to MIC of antibiotic alone (Klebsiella pneumoniae; KPM1026a, with xeruborbactam at 4 μg/mL) | fold decrease compared to MIC of antibiotic alone (Klebsiella pneumoniae; KPM3532 (TolQ::M189K), with xeruborbactam at 4 μg/mL)
4 fold: fold decrease compared to MIC of antibiotic alone (Klebsiella pneumoniae; KPM3532 (TolQ::M189K), with xeruborbactam at 8 μg/mL) | fold decrease compared to MIC of antibiotic alone (Klebsiella pneumoniae; KPM3534 (TolQ::S31F), with xeruborbactam at 4 μg/mL)
8 mg/L: MIC (Acinetobacter baumannii; [3]) | MIC (Klebsiella pneumoniae; Klebsiella pneumoniae, KPM4127 (KPM3532 TolQ::M189K/KPC-3), alone) | MIC (Klebsiella pneumoniae; Klebsiella pneumoniae, KPM4129 (KPM3532 TolQ::M189K/NDM-1), alone)
0.5 mg/L: MIC (Pseudomonas aeruginosa; PAM1154 (oprM::Hg), xeruborbactam 0 µg/ml) | MIC (Pseudomonas aeruginosa; [7]) | MIC (Pseudomonas aeruginosa; [10]) | MIC (Klebsiella pneumoniae; KP1074, with xeruborbactam 2 µg/ml) | MIC (Klebsiella pneumoniae; Klebsiella pneumoniae, KPM1211 (KP1074 after loss of pKpQIL), read-out: MIC)

NCCONC(=O)[C@@H]1CC[C@@H]2CN1C(=O)N2OS(=O)(=O)O [Nacubactam]
4 mg/L: MIC (Escherichia coli; [5]) | MIC (Escherichia coli; strain ECM6001, ΔacrB) | MIC (Klebsiella pneumoniae; [14])
2 mg/L: MIC (Escherichia coli; [6]) | MIC (Klebsiella pneumoniae; [19])
> 256 mg/L: MIC (Acinetobacter baumannii; [1]) | MIC (Acinetobacter baumannii; strain ACM1013, ΔadeIJK) | MIC (Acinetobacter baumannii; strain ACM1014, ΔadeABC) | MIC (Acinetobacter baumannii; [2]) | MIC (Acinetobacter baumannii; [3]) | MIC (Acinetobacter baumannii; [4])
128 mg/L: MIC (Pseudomonas aeruginosa; [7]) | MIC (Pseudomonas aeruginosa; [8]) | MIC (Pseudomonas aeruginosa; [10]) | MIC (Pseudomonas aeruginosa; [11]) | MIC (Pseudomonas aeruginosa; [12])
8 mg/L: MIC (Klebsiella pneumoniae; [13]) | MIC (Klebsiella pneumoniae; [17])
> 64 mg/L: MIC (Klebsiella pneumoniae; [15]) | MIC (Klebsiella pneumoniae; [16]) | MIC (Klebsiella pneumoniae; [18])
32 mg/L: MIC (Pseudomonas aeruginosa; [9])
